Results from patent publication US12275729B2 (Merck Sharp & Dohme LLC, priority 2017, dated 2025).
pIC50: −log10 of the molar value.

biological target: IDO1 (Homo sapiens, UniProt P14902); assay: IDO1 Cellular Assay in HeLa Cells Stimulated with IFNγ; assay type: cell-based; conditions: about 48 hours, read-out: Hela IC50
Sequence (P14902 whole entry): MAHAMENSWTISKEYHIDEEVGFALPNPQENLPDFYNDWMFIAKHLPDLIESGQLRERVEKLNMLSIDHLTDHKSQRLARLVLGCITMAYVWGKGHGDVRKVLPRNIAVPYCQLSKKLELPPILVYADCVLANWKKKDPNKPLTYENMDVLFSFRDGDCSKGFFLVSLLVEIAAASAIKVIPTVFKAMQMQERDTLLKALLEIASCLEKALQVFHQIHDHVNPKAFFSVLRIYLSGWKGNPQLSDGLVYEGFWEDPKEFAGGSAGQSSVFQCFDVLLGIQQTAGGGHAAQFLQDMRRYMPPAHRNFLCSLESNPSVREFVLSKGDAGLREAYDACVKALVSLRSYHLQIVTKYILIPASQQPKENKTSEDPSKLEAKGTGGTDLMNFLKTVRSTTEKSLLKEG

SMILES	pIC50
C[C@@H](NC(=O)c1ccc(F)cc1)c1ccc2c(n1)CCCN2C(=O)[C@H]1CC1(F)F (single isomer, unassigned) [Example 134]	7.62
C[C@@H](NC(=O)c1ccc(F)cc1)c1ccc2c(n1)CCCN2C(=O)[C@H]1CCOC1 [Example 131, 4-fluoro-N-((R)-1-(5-((S)-tetrahydrofuran-3-carbonyl)-5,6,7,8-tetrahydro-1,5-naphthyridin-2-yl)ethyl)benzamide]	6.45
CC(C(=O)Nc1ccc(F)cc1)c1ccc2c(c1)CCCN2C1CCCCC1 (stereo not drawn) [Example 228, 2-(1-cyclohexyl-1,2,3,4-tetrahydroquinolin-6-yl)-N-(4-fluorophenyl)propanamide]	5.38
CC(NC(=O)c1ccc(F)cc1)c1ccc2c(c1)CCCN2C(CO)c1cccc(Cl)c1 (single isomer, unassigned) [Example 95]	6.26
C[C@@H](NC(=O)c1ccc(F)cc1)c1ccc2c(n1)CCCN2C(=O)[C@@H]1CC1(F)F (single isomer, unassigned) [Example 135]	6.38
CC(NC(=O)c1ccc(F)cc1)c1ccc2c(n1)C(F)(F)CCN2C(=O)C1CC1 (stereo not drawn) [Example 193, N-(1-(5-(cyclopropanecarbonyl)-8,8-difluoro-5,6,7,8-tetrahydro-1,5-naphthyridin-2-yl)ethyl)-4-fluorobenzamide]	5.28
C[C@H](C(=O)Nc1ccc(F)cc1)c1ccc2c(c1)CCCN2C(=O)[C@@H]1CCOC1 [Example 78, (2S)-N-(4-fluorophenyl)-2-{1-[(3R)-oxolane-3-carbonyl]-1,2,3,4-tetrahydroquinolin-6-yl}propanamide]	7.29
CCn1ccc(C(=O)NCc2ccc3c(c2)CCCN3C(=O)c2cccc(Cl)c2)n1 [Example 24]	7.00
COC(=O)N1CCCc2nc(C3(C(=O)Nc4ccc(F)cc4)CC3)ccc21 [Example 222, methyl 6-{1-[(4-fluorophenyl)carbamoyl]cyclopropyl}-3,4-dihydro-1,5-naphthyridine-1(2H)-carboxylate]	7.66
O=C(NCc1ccc2c(c1)CCCN2C(=O)OCc1ccccc1)c1ccc(Cl)cc1 [Example 15, benzyl 6-((4-chlorobenzamido)methyl)-3,4-dihydroquinoline-1(2H)-carboxylate]	7.43

The next lines start with the values.

pIC50	SMILES
9.13	Cc1nccc(N2CCCc3nc(C4(NC(=O)c5ccc(Cl)cc5)CC4)ccc32)n1 [Example 299, 4-chloro-N-(1-(5-(2-methylpyrimidin-4-yl)-5,6,7,8-tetrahydro-1,5-naphthyridin-2-yl)cyclopropyl)benzamide]
8.55	CC(NC(=O)c1ccc(F)cc1)c1ccc2c(n1)CCCN2C(=O)c1cc(F)ccn1 (stereo not drawn) [Example 282, 2-(1-(4-fluorobenzamido)ethyl)-5-(4-fluoropicolinoyl)-5,6,7,8-tetrahydro-1,5-naphthyridin-1-ium 2,2,2-trifluoroacetate]
8.03	O=C(NC1(c2ccc3c(n2)CCCN3c2ccncn2)CC1)c1ccc(F)cc1 [Example 246, 4-fluoro-N-(1-(5-(pyrimidin-4-yl)-5,6,7,8-tetrahydro-1,5-naphthyridin-2-yl)cyclopropyl)benzamide]
7.78	CC(C(=O)Nc1ccc(F)cc1)c1ccc2c(n1)CCCN2C(=O)C1CCOCC1 (stereo not drawn) [Example 166, N-(4-fluorophenyl)-2-[5-(oxane-4-carbonyl)-5,6,7,8-tetrahydro-1,5-naphthyridin-2-yl]propanamide]
7.80	CC(C)C(C(=O)Nc1ccc(F)cc1)c1ccc2c(n1)CCCN2C(=O)C1CC1 (stereo not drawn) [Example 265, 2-(5-(cyclopropanecarbonyl)-5,6,7,8-tetrahydro-1,5-naphthyridin-2-yl)-N-(4-fluorophenyl)-3-methylbutanamide]
8.74	O=C(C1CCCCO1)N1CCCc2nc(C3(C(=O)Nc4ccc(F)cc4)CCC3)ccc21 (single isomer, unassigned) [Example 179, N-(4-fluorophenyl)-1-[5-(oxane-2-carbonyl)-5,6,7,8-tetrahydro-1,5-naphthyridin-2-yl]cyclobutane-1-carboxamide]
8.83	O=C(OC1CC1)N1CCCc2nc(C3(C(=O)Nc4ccc(Cl)cc4)COC3)ccc21 [compound 398, cyclopropyl 6-(3-((4-chlorophenyl)carbamoyl)oxetan-3-yl)-3,4-dihydro-1,5-naphthyridine-1(2H)-carboxylate]
8.67	Cc1nccc(N2CCCc3nc(C4(C(=O)Nc5ccc(F)cc5)CCC4)ccc32)n1 [Example 403, N-(4-fluorophenyl)-1-(5-(2-methylpyrimidin-4-yl)-5,6,7,8-tetrahydro-1,5-naphhyridin-2-yl)cyclobutane-1-carboxamide]
8.29	COC(=O)N1CCCc2nc(C3(C(=O)Nc4ccc(Cl)cc4)CCC3)ccc21 [Example 218, methyl 6-{1-[(4-chlorophenyl)carbamoyl]cyclobutyl}-3,4-dihydro-1,5-naphthyridine-1(2H)-carboxylate]
8.66	CC(NC(=O)c1ccc(F)cc1)c1ccc2c(n1)CCCN2C(=O)c1ncccc1F (stereo not drawn) [Example 283, 2-(1-(4-fluorobenzamido)ethyl)-5-(3-fluoropicolinoyl)-5,6,7,8-tetrahydro-1,5-naphthyridin-1-ium 2,2,2-trifluoroacetate]
8.24	CC(C)(C(=O)Nc1ccc(F)cc1)c1ccc2c(n1)CCCN2C(=O)c1cccc(Cl)c1 [Example 188, 2-[5-(3-chlorobenzene-1-carbonyl)-5,6,7,8-tetrahydro-1,5-naphthyridin-2-yl]-N-(4-fluorophenyl)-2-methylpropanamide]
8.38	Cc1noc(C(=O)N2CCCc3cc(C(C)C(=O)Nc4ccc(F)cc4)ccc32)n1 (stereo not drawn) [Example 43, N-(4-fluorophenyl)-2-[1-(3-methyl-1H-1,2,4-oxadiazole-5-carbonyl)-1,2,3,4-tetrahydroquinolin-6-yl]propanamide]

same assay, conditions: read-out: Hela IC50

pIC50	SMILES
6.45	CC(NC(=O)c1ccc(F)cc1)c1ccc2c(n1)CCCN2c1cc(C#N)ccn1 (stereo not drawn) [Example 378, N-(1-(5-(4-cyanopyridin-2-yl)-5,6,7,8-tetrahydro-1,5-naphthyridin-2-yl)ethyl)-4-fluorobenzamide]
9.14	O=C(OC1CC1)N1CCCc2nc(C3(C(=O)Nc4ccc(Cl)cc4)CCC3)ccc21 [Example 411, cyclopropyl 6-(1-((4-chlorophenyl)carbamoyl)cyclobutyl)-3,4-dihydro-1,5-naphthyridine-1(2H)-carboxylate]
6.32	CC(NC(=O)c1ccc(F)cc1)c1ccc2c(n1)CCCN2C(=O)OCCn1ccnc1 (stereo not drawn) [Example 328, 2-(1H-imidazol-1-yl)ethyl 6-(1-(4-fluorobenzamido)ethyl)-3,4-dihydro-1,5-naphthyridine-1(2H)-carboxylate]
7.98	CC(NC(=O)c1ccc(F)cc1)c1ccc2c(n1)CCCN2c1cccc(C(F)(F)F)n1 (stereo not drawn) [Example 354, 4-fluoro-N-(1-(5-(6-(trifluoromethyl)pyridin-2-yl)-5,6,7,8-tetrahydro-1,5-naphthyridin-2-yl)ethyl)benzamide]
7.00	CC(NC(=O)c1ccc(F)cc1)c1ccc2c(n1)CCCN2c1ccc(F)cn1 (stereo not drawn) [Example 376, 4-fluoro-N-(1-(5-(5-fluoropyridin-2-yl)-5,6,7,8-tetrahydro-1,5-naphthyridin-2-yl)ethyl)benzamide]
